Assay results reported in PMC11484942, “Rumicidins are a family of mammalian host-defense peptides plugging the 70S ribosome exit tunnel” (Nature Communications, 2024).

Experiments:
Experiment in all cases: Cytokine response, multiplex xMAP
Type in all cases: cell-based, human
Conditions in all cases: 2 µM peptide, 24 h
T-/B-/NK-lymphocytes = test system: T-/B-/NK-lymphocytes
Procedure: (§1) The acute monocytic leukemia THP-1 cell line (ATCC TIB-202) was cultured in the complete RPMI 1640 medium (Invitrogen) containing 10% FBS, 1× antibiotic-antimycotic solution (Invitrogen), and 0.05 mM β-mercaptoethanol, in the CO2-incubator (5% CO2, 37 °C). THP-1 cells were differentiated into proinflammatory macrophages (MΦ1) according to the previously reported protocol. Primary peripheral blood mononuclear cells (PBMC) collected from a healthy donor were purchased from ATCC (PCS-800-011), thawed, and seeded into a 96-well plate one day prior to the experiment at a density of 2 × 10^5 cells/well. Two different cell subpopulations (monocytes and T-/B-/NK-lymphocytes) were isolated from PBMC based on their adherence ability. Macrophages MΦ1 were washed out and seeded into 96-well plates at a density of 10^5 cells/well one day prior to the experiment. The next day, medium in each well was replaced by a fresh complete RPMI 1640 medium with or without 2 μM of a tested peptide (rumicidin-1 or LL-37). Cell cultures were kept in a CO2-incubator (5% CO2, 37 °C) for 24 h. Culture supernatants were collected 24 h later and stored at −70 °C degrees less than one week prior to the assessment of analytes. 26 analytes were measured at a protein level by multiplex xMAP technology using the MILLIPLEX MAP Human Cytokine/Chemokine Magnetic Bead Immunology Panel kit (HCYTOMAG-60K-27, Merck): eotaxin-1/CCL11, TGFα, GM-CSF, IFNα2, IFNγ, IL-10, IL-12p40, IL-12p70, IL-15, sCD40L, IL-17A, IL-1RA, IL-1α, IL-9, IL-1β, IL-2, IL-3, IL-4, IL-5, IL-6, IL-7, IL-8/CXCL8, IP-10/CXCL10, RANTES/CCL5, TNFα, TNFβ. Multiplex-based assay read-out was performed using the MAGPIX system (Merck) with the xPONENT 4.2 software (Merck) in accordance with the manufacturer’s instruction with overnight incubation of the samples with primary antibodies. The final analysis was carried out with the MILLIPLEX Analyst v5.1 software (Merck). Measurements were performed twice for each sample. The release of the analytes in control and experimental samples were compared by unpaired two-sample t-test using GraphPad Prism v.8.0.1. The p values ≤ 0.05 were considered significant.

[1] = test system: macrophages MΦ1 (THP-1 derived)
Procedure: as §1

Caco-2 cells = test system: Caco-2 cells

Q: `CC[C@H](C)[C@H](NC(=O)[C@H](CCCCN)NC(=O)[C@H](CCC(=O)O)NC(=O)[C@H](CCCCN)NC(=O)[C@H](CO)NC(=O)[C@H](CCCCN)NC(=O)[C@H](CCCNC(=N)N)NC(=O)[C@H](Cc1ccccc1)NC(=O)[C@H](Cc1ccccc1)NC(=O)[C@H](CC(=O)O)NC(=O)CNC(=O)[C@H](CC(C)C)NC(=O)[C@@H](N)CC(C)C)C(=O)NCC(=O)N[C@@H](CCCCN)C(=O)N[C@@H](CCC(=O)O)C(=O)N[C@@H](Cc1ccccc1)C(=O)N[C@@H](CCCCN)C(=O)N[C@@H](CCCNC(=N)N)C(=O)N[C@H](C(=O)N[C@H](C(=O)N[C@@H](CCC(N)=O)C(=O)N[C@@H](CCCNC(=N)N)C(=O)N[C@H](C(=O)N[C@@H](CCCCN)C(=O)N[C@@H](CC(=O)O)C(=O)N[C@@H](Cc1ccccc1)C(=O)N[C@@H](CC(C)C)C(=O)N[C@@H](CCCNC(=N)N)C(=O)N[C@@H](CC(N)=O)C(=O)N[C@@H](CC(C)C)C(=O)N[C@H](C(=O)N1CCC[C@H]1C(=O)N[C@@H](CCCNC(=N)N)C(=O)N[C@H](C(=O)N[C@@H](CCC(=O)O)C(=O)N[C@@H](CO)C(=O)O)[C@@H](C)O)C(C)C)[C@@H](C)CC)C(C)C)[C@@H](C)CC` [LL-37] was tested. Which GM-CSF (T-/B-/NK-lymphocytes) did it give?
A: Its GM-CSF is 0,66 pg/ml.

Q: What about the IFNa2 (T-/B-/NK-lymphocytes) of the same compound?
A: The IFNa2 was 7,02 pg/ml.

Q: What about the IFNg (T-/B-/NK-lymphocytes) of the same compound?
A: The IFNg was 1,93 pg/ml.

Q: And the IL-1RA (T-/B-/NK-lymphocytes)?
A: The IL-1RA was 6,49 pg/ml.

Q: And the IL-1a (T-/B-/NK-lymphocytes)?
A: The IL-1a was under 1.13 pg/mL.

Q: And the IL-1b (T-/B-/NK-lymphocytes)?
A: The IL-1b was under 2.88 pg/mL.

Q: And the IL-2 (T-/B-/NK-lymphocytes)?
A: The IL-2 was under 2.73 pg/mL.

Q: And the IL-3 (T-/B-/NK-lymphocytes)?
A: Its IL-3 is under 3.02 pg/mL.

Q: And the IL-4 (T-/B-/NK-lymphocytes)?
A: Its IL-4 is 51,58 pg/ml.

Q: And the IL-5 (T-/B-/NK-lymphocytes)?
A: Its IL-5 is under 2.74 pg/mL.

Q: And the IL-6 (T-/B-/NK-lymphocytes)?
A: The IL-6 was under 2.42 pg/mL.

Q: And the IL-7 (T-/B-/NK-lymphocytes)?
A: The IL-7 was under 2.06 pg/mL.

Q: What about the IL-8 (T-/B-/NK-lymphocytes) of the same compound?
A: The IL-8 was 411,17 pg/ml.

Q: What about the IL-9 (T-/B-/NK-lymphocytes) of the same compound?
A: The IL-9 was under 3.08 pg/mL.

Q: And the IL-10 (T-/B-/NK-lymphocytes)?
A: The IL-10 was under 1.47 pg/mL.

Q: What about the IL-12p40 (T-/B-/NK-lymphocytes) of the same compound?
A: The IL-12p40 was under 3.69 pg/mL.

Q: And the IL-12p70 (T-/B-/NK-lymphocytes)?
A: The IL-12p70 was 1,03 pg/ml.

Q: What about the IL-15 (T-/B-/NK-lymphocytes) of the same compound?
A: The IL-15 was under 2.08 pg/mL.

Q: And the IL-17A (T-/B-/NK-lymphocytes)?
A: Its IL-17A is under 0.94 pg/mL.

Q: What about the IP-10 (T-/B-/NK-lymphocytes) of the same compound?
A: Its IP-10 is 120,56 pg/ml.

Q: What about the RANTES (T-/B-/NK-lymphocytes) of the same compound?
A: The RANTES was 889,61 pg/ml.

Q: What about the TGF-a (T-/B-/NK-lymphocytes) of the same compound?
A: Its TGF-a is under 2.64 pg/mL.

Q: What about the TNFa (T-/B-/NK-lymphocytes) of the same compound?
A: Its TNFa is 5,23 pg/ml.

Q: And the TNFb (T-/B-/NK-lymphocytes)?
A: The TNFb was under 2.85 pg/mL.

Q: And the sCD40L (T-/B-/NK-lymphocytes)?
A: Its sCD40L is 3,22 pg/ml.

Q: What about the GM-CSF [1] of the same compound?
A: The GM-CSF was 1,32 pg/ml.

Q: What about the IFNa2 [1] of the same compound?
A: Its IFNa2 is 4,35 pg/ml.

Q: What about the IFNg [1] of the same compound?
A: The IFNg was under 1.31 pg/mL.

Q: What about the IL-1RA [1] of the same compound?
A: The IL-1RA was 20,52 pg/ml.

Q: And the IL-1a [1]?
A: Its IL-1a is under 1.13 pg/mL.

Q: What about the IL-1b [1] of the same compound?
A: The IL-1b was 10,63 pg/ml.

Q: And the IL-2 [1]?
A: Its IL-2 is under 2.73 pg/mL.

Q: And the IL-3 [1]?
A: The IL-3 was under 3.02 pg/mL.

Q: And the IL-4 [1]?
A: Its IL-4 is 38,61 pg/ml.

Q: And the IL-5 [1]?
A: The IL-5 was under 2.74 pg/mL.

Q: What about the IL-6 [1] of the same compound?
A: The IL-6 was under 2.42 pg/mL.

Q: And the IL-7 [1]?
A: The IL-7 was under 2.06 pg/mL.

Q: And the IL-8 [1]?
A: The IL-8 was 1188 pg/mL.

Q: What about the IL-9 [1] of the same compound?
A: The IL-9 was under 3.08 pg/mL.

Q: And the IL-10 [1]?
A: The IL-10 was 6,13 pg/ml.

Q: And the IL-12p40 [1]?
A: Its IL-12p40 is under 3.69 pg/mL.

Q: What about the IL-12p70 [1] of the same compound?
A: The IL-12p70 was 0,58 pg/ml.

Q: And the IL-15 [1]?
A: The IL-15 was 2,42 pg/ml.

Q: And the IL-17A [1]?
A: Its IL-17A is under 0.94 pg/mL.

Q: What about the IP-10 [1] of the same compound?
A: The IP-10 was 282,01 pg/ml.

Q: What about the RANTES [1] of the same compound?
A: The RANTES was 715,62 pg/ml.

Q: What about the TGF-a [1] of the same compound?
A: The TGF-a was under 2.64 pg/mL.

Q: And the TNFa [1]?
A: Its TNFa is 9,49 pg/ml.

Q: What about the TNFb [1] of the same compound?
A: Its TNFb is under 2.85 pg/mL.

Q: And the sCD40L [1]?
A: Its sCD40L is 3,22 pg/ml.

Q: And the Eotaxin (Caco-2 cells)?
A: Its Eotaxin is under 2.04 pg/mL.

Q: And the GM-CSF (Caco-2 cells)?
A: Its GM-CSF is 0,45 pg/ml.

Q: And the IFNa2 (Caco-2 cells)?
A: The IFNa2 was 3,72 pg/ml.

Q: What about the IFNg (Caco-2 cells) of the same compound?
A: The IFNg was under 1.31 pg/mL.

Q: What about the IL-1RA (Caco-2 cells) of the same compound?
A: Its IL-1RA is under 2.66 pg/mL.

Q: And the IL-1a (Caco-2 cells)?
A: Its IL-1a is under 1.13 pg/mL.

Q: And the IL-1b (Caco-2 cells)?
A: The IL-1b was under 2.88 pg/mL.

Q: And the IL-2 (Caco-2 cells)?
A: Its IL-2 is under 2.73 pg/mL.

Q: And the IL-3 (Caco-2 cells)?
A: Its IL-3 is under 3.02 pg/mL.

Q: And the IL-4 (Caco-2 cells)?
A: Its IL-4 is 43,73 pg/ml.

Q: What about the IL-5 (Caco-2 cells) of the same compound?
A: The IL-5 was under 2.74 pg/mL.

Q: And the IL-6 (Caco-2 cells)?
A: The IL-6 was under 2.42 pg/mL.

Q: And the IL-7 (Caco-2 cells)?
A: The IL-7 was under 2.06 pg/mL.

Q: What about the IL-8 (Caco-2 cells) of the same compound?
A: Its IL-8 is 3,19 pg/ml.

Q: And the IL-9 (Caco-2 cells)?
A: The IL-9 was under 3.08 pg/mL.

Q: What about the IL-10 (Caco-2 cells) of the same compound?
A: Its IL-10 is under 1.47 pg/mL.

Q: What about the IL-12p40 (Caco-2 cells) of the same compound?
A: The IL-12p40 was under 3.69 pg/mL.

Q: What about the IL-12p70 (Caco-2 cells) of the same compound?
A: Its IL-12p70 is 0,29 pg/ml.

Q: And the IL-15 (Caco-2 cells)?
A: Its IL-15 is under 2.08 pg/mL.

Q: And the IL-17A (Caco-2 cells)?
A: The IL-17A was under 0.94 pg/mL.

Q: What about the IP-10 (Caco-2 cells) of the same compound?
A: The IP-10 was 114,78 pg/ml.

Q: What about the RANTES (Caco-2 cells) of the same compound?
A: Its RANTES is 1050 pg/mL.

Q: And the TGF-a (Caco-2 cells)?
A: Its TGF-a is under 2.64 pg/mL.

Q: And the TNFa (Caco-2 cells)?
A: Its TNFa is under 2.85 pg/mL.

Q: And the TNFb (Caco-2 cells)?
A: Its TNFb is under 2.85 pg/mL.

Q: What about the sCD40L (Caco-2 cells) of the same compound?
A: The sCD40L was 2,12 pg/ml.
